A short description of series [1]: Solubility of the compound in aqueous solution at 10 mg/ml by UV spectroscopy. Format: physicochemical.
The test system of series [2] is Plasma. Description: Metabolic stability of the compound in human plasma at 10 mM after 2 mins by reversed-phase HPLC/UV analysis. Type of series: ADME, cell-free. The settings on record: 10000 µM.
A short description of series [3]: Chemical stability of the compound in aqueous solution at 10 mg/ml by HPLC up to 2 hrs. Format: physicochemical. The settings on record: buffer.
Series [4] deals with Stromelysin-1 (Homo sapiens) (UniProt P08254). As to the kind of experiment: Inhibition of human recombinant MMP3 catalytic domain assessed as hydrolysis of MOCAcPLGLA2pr(Dnp)AR-NH2 at 300 uM fluorescence by spectrofluorometry.
The target in series [5] is T1, Interstitial collagenase (Homo sapiens) (UniProt P03956).
T1 sequence (whole entry): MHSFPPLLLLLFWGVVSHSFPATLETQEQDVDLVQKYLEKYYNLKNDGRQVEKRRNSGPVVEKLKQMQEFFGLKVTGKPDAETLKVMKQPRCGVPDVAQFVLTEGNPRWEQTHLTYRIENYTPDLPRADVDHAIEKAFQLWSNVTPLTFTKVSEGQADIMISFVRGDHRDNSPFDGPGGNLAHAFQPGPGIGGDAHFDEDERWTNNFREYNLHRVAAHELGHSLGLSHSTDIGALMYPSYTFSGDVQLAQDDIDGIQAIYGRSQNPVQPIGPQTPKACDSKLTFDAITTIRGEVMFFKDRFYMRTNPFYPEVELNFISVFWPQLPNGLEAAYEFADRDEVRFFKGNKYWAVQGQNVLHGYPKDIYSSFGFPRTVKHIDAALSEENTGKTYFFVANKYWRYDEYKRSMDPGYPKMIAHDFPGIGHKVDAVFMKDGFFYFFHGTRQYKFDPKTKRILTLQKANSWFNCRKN
Description: Inhibition of human recombinant MMP1 catalytic domain assessed as hydrolysis of MOCAcPLGLA2pr(Dnp)AR-NH2 at 300 uM by fluorescence spectrofluorometry.

The test system of series [6] is Liver microsomes. As to the kind of experiment: Prodrug conversion in rat liver microsomes assessed as release of N-(4-(4-(thiiran-2-ylmethylsulfonyl)phenoxy)phenyl)acetamide after 60 mins by HPLC/MS analysis. Format: ADME, Microsome. The settings on record: 1 h. (In general: Liver microsomes are vesicles of endoplasmic reticulum, rich in cytochrome P450 enzymes.)

Series [7] relates to Plasma. As to the kind of experiment: Half life in human plasma at 10 mM by reversed-phase HPLC/UV analysis. Format: ADME, cell-free. The settings on record: 10000 µM.
For series [8], the system named is Liver microsomes. Description: Half life in rat liver microsomes at 100 uM by reversed-phase HPLC/UV analysis. Format: ADME, Microsome.
The subject of series [9] is Salmonella typhimurium. As to the kind of experiment: Induction of mutagenicity in Salmonella Typhimurium TA98 at 1 mg/mL after 48 hrs by Ames assay in presence of rat liver S9 metabolic activation system. Type of series: toxicity, organism-based. The settings on record: salmonella enterica subsp. enterica serovar typhimurium, s9, 48 h.
The test system of series [10] is Salmonella typhimurium. As to the kind of experiment: Induction of mutagenicity in Salmonella Typhimurium TA7001 to TA7006 at 1 mg/mL after 48 hrs by Ames assay in absence of rat liver S9 metabolic activation system. Type of series: toxicity, organism-based. The settings on record: salmonella enterica subsp. enterica serovar typhimurium. For orientation: The Ames test detects mutagens through reverse mutation in bacteria.

Series [11] has as its system Liver. As to the kind of experiment: Half life in mouse liver microsomes at 100 uM by reversed-phase HPLC/UV analysis. Format: ADME, Microsome.
The subject of series [12] is Blood. Description: Prodrug conversion in human blood assessed as release of 4-[4-((Thiiran-2-yl)methylsulphonyl)phenoxy]benzamine at 10 mM after 30 mins by reversed-phase HPLC/UV analysis. Type of series: ADME, tissue-based. The settings on record: 0.5 h, 10000 µM.
Series [13] is described as follows: Chemical stability of the compound in aqueous solution at 10 mg/ml by HPLC after 1 month. Type of series: physicochemical. The settings on record: buffer, 730.5 h.
Series [14] deals with Salmonella typhimurium. As to the kind of experiment: Induction of mutagenicity in Salmonella Typhimurium TA7001 to TA7006 at 1 mg/mL after 48 hrs by Ames assay in presence of rat liver S9 metabolic activation system. Format: toxicity, organism-based. The settings on record: salmonella enterica subsp. enterica serovar typhimurium, s9, 48 h.
Series [15] has as its system Salmonella typhimurium. As to the kind of experiment: Induction of mutagenicity in Salmonella Typhimurium TA98 at 1 mg/mL after 48 hrs by Ames assay in absence of rat liver S9 metabolic activation system. Format: toxicity, organism-based. The settings on record: salmonella enterica subsp. enterica serovar typhimurium, s9, 48 h.
The species named for series [16] is Mus musculus. As to the kind of experiment: Hepatic blood flow in mouse. Format: ADME, organism-based, Liver.
In series [17] the test system is Liver microsomes. Description: Half life in human liver microsomes at 100 uM by reversed-phase HPLC/UV analysis. Type of series: ADME, Microsome.
Series [18] is filed under the species Rattus norvegicus. As to the kind of experiment: Hepatic blood flow in rat. Type of series: ADME, organism-based, Liver.
In series [19] the test system is Blood. As to the kind of experiment: Half life in human blood at 10 mM by reversed-phase HPLC/UV analysis. The settings on record: 10000 µM. Format: ADME, tissue-based.
Series [20] has as its system Liver microsomes. Description: Prodrug conversion in rat liver microsomes assessed as release of 4-(4-aminophenoxy)benzenesulfinic acid after 60 mins by HPLC/MS analysis. The settings on record: 1 h. Type of series: ADME, Microsome.
Series [21] deals with Liver microsomes. As to the kind of experiment: Prodrug conversion in rat liver microsomes assessed as release of 4-(4-((S)-2-amino-5-guanidinopentanamido)phenoxy)benzenesulfinic acid after 60 mins by HPLC/MS analysis. The settings on record: 1 h. Type of series: ADME, Microsome.
The species named for series [22] is Homo sapiens. As to the kind of experiment: Hepatic blood flow in human. Format: ADME, organism-based, Liver.
In series [23] the target is Matrix metalloproteinase-9 (Homo sapiens, UniProt P14780).
Description: Inhibition of human recombinant MMP9 catalytic domain assessed as hydrolysis of MOCAcPLGLA2pr(Dnp)AR-NH2 by fluorescence spectrofluorometry

pKi: −log10 of the molar value. Some results are limits rather than exact numbers.

Sequence of Matrix metalloproteinase-9 (P14780 whole entry): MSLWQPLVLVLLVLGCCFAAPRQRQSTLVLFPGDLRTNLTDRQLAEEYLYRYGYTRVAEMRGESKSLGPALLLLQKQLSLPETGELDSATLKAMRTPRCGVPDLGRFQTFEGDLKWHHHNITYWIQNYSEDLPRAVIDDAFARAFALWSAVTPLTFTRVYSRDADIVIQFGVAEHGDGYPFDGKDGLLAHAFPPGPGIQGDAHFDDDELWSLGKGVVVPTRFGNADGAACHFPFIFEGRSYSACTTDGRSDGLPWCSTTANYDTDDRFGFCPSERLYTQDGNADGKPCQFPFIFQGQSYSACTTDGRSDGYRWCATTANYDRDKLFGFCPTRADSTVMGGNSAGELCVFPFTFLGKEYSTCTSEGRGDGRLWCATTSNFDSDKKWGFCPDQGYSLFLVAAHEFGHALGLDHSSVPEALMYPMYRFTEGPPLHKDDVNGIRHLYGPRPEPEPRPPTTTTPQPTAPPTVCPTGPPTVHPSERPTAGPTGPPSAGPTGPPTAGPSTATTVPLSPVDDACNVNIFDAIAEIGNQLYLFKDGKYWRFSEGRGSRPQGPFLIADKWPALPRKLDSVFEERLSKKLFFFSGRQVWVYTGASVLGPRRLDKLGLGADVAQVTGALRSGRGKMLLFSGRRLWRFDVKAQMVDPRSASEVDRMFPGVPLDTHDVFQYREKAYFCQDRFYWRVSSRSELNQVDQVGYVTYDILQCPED
Sequence of Stromelysin-1 (Homo sapiens) (P08254 100-477 limits assumed): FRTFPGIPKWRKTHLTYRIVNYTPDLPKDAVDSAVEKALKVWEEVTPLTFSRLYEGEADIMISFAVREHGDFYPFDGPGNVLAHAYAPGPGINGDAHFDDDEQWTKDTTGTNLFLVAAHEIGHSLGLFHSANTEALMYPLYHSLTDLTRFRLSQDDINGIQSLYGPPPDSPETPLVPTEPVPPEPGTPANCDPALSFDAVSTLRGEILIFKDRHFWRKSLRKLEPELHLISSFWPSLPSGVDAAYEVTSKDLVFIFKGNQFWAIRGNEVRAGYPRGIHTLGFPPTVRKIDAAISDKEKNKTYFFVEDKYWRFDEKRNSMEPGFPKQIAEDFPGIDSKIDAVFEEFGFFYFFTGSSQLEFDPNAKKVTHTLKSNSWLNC

As a reminder, the solubility is how much of the substance goes into solution per volume. Read a high solubility as much dissolved substance. As for `NCCCC[C@H](N)C(=O)Oc1ccc(Oc2ccc(S(=O)(=O)CC3CS3)cc2)cc1` (stereo partly drawn), the solubility in series [1] was greater than 10000 µg/mL. Besides, the Stability entry in series [2] and in [3] was “Unstable” in each case.
Broadly, the inhibition is how much of the control response was suppressed. Regarding `Nc1ccc(Oc2ccc(S(=O)(=O)CC3CS3)cc2)cc1O` (stereo not drawn), the inhibition came to 54% in series [4] and 11% in series [5].
Compound `N[C@@H](CCC(=O)O)C(=O)Oc1ccc(Oc2ccc(S(=O)(=O)CC3CS3)cc2)cc1` (stereo partly drawn) registered a solubility in series [1] greater than 10000 µg/mL. The Stability result in series [2] and in [3] was “Unstable” each time.
In [1], `NCC(=O)Oc1ccc(Oc2ccc(S(=O)(=O)CC3CS3)cc2)cc1` (stereo not drawn) returned a solubility greater than 10000 µg/mL. Also, the Stability entry in series [2] and in series [3] was “Unstable” each time.
Take `N=C(N)NCCC[C@H](N)C(=O)Oc1ccc(Oc2ccc(S(=O)(=O)CC3CS3)cc2)cc1` (stereo partly drawn): the solubility in series [1] is greater than 10000 µg/mL. The Stability entry in series [2] and in series [3] was “Unstable” throughout.
As to `N=C(N)NCCC[C@H](N)C(=O)Nc1ccc(Oc2ccc(S(=O)(=O)CC3CS3)cc2)cc1` (stereo partly drawn), the solubility in series [1] was greater than 10000 µg/mL. Also, the Drug metabolism entry was “Active” in series [6], “tde” in series [12] (TDE = time-dependent effect), “Active” in series [20] and “Active” in series [21]. Further, the t1/2 in [7] is given as 29.5 min; in series [8], 59.3 min; in series [11] it was greater than 60 min; in series [17], greater than 60 min; in series [19], 25.4 min. Further, the Activity result in [9], in series [10], in series [14] and in series [15] was “Non-toxic” throughout. Moreover, the Stability result in series [13] is recorded as “Stable”. In addition, the values for the QH in [16], in [18] and in series [22] were 86 mL/min/kg, 66 mL/min/kg and 21 mL/min/kg, respectively.
As a reminder, the pKi is −log10 of the Ki, conventionally taken in molar units. The low end stands for a large Ki, the high end for a small Ki. In series [1], `N[C@@H](CCC(=O)O)C(=O)Nc1ccc(Oc2ccc(S(=O)(=O)CC3CS3)cc2)cc1` (stereo partly drawn) came in with a solubility greater than 10000 µg/mL. The figures for the t1/2 in series [7] and in series [19] were 32.8 min and 27.9 min, respectively. Further, the pKi in series [23] is 5.37. Also, the Drug metabolism result in [12] is reported as “Active”. In series [13], the Stability entry is recorded as “Stable”.

The values above are taken from ChEMBL document CHEMBL1833788, “Selective water-soluble gelatinase inhibitor prodrugs” (J Med Chem, 2011).
